Experiments:
[1] = tested on: MDA-MB231 breast cancer cells; assay: MDA-MB231 viability in conventional 2-D culture; type: cell-based, human
Procedure: For the drug testing studies, different doses of two frequently utilized chemotherapeutic drugs were first evaluated with regard to their ability to reduce breast cancer cell viability in conventional 2-D culture.
(§1) Consequently, all subsequent drug testing studies were performed with doxorubicin.

[2] = tested on: MDA-MB231 breast cancer cells; assay: Doxorubicin responsiveness in 3-D cultures within RGD-modified alginate gels versus 2-D monolayer; type: cell-based, human; conditions: 3-D cultures within RGD-modified alginate gels vs 2-D monolayer (FIG. 5C)
Procedure: To examine tumor malignancy and efficacy of anti-cancer drugs in response to enhanced mechanical stiffness, MDA-MB231 were incorporated in 3-D RGD-modified alginate cultures and were evaluated for proliferation, secretion of a molecular marker of enhanced malignancy (i.e., interleukin-8 (IL-8)), and drug responsiveness.
as §1

Row | SMILES | MDA-MB231 viability in 2-D culture ([1]; high doses, 2-D culture (FIG. 5B, left panel)) | number of viable tumor cells in 2-D culture ([1]; 0.5 μM, 2-D culture (FIG. 5B, right panel)) | efficacy of doxorubicin treatment in 3-D relative to 2-D conditions [2]
1 | N.N.[Cl][Pt][Cl] [cisplatin] | did not alter MDA-MB231 viability | – | –
2 | COc1cccc2c1C(=O)c1c(O)c3c(c(O)c1C2=O)C[C@@](O)(C(=O)CO)C[C@@H]3O[C@H]1C[C@H](N)[C@H](O)[C@H](C)O1 [doxorubicin] | – | efficiently reduced the number of viable tumor cells | 3-D micro-environmental conditions dramatically-reduce the efficacy of doxorubicin treatment relative to 2-D conditions

From patent US9097702B2, “Pathologically relevant tumor microenvironments for high-throughput drug screening” (Cornell University, priority 2008, dated 2015)
